{"source": "patent US10335608B2", "about": "“Photodynamic compounds and methods for activating them using ionizing radiation and/or other electromagnetic radiation for therapy and/or diagnostics” (THERALASE TECHNOLOGIES, INC., priority 2016, dated 2019)", "key": {"[1]": {"test": "In vivo CT imaging of the photosensitizer after tail vein injection", "settings": "rat, 1 mg/kg via tail vein, 5 min to 4 hours post administration", "protocol": "For in vivo imaging of the photosensitizer, a rat was injected with 1 mg/kg of OsH2dppn via tail vein and imaged with a small animal CT scanner as a function of time post-systemic administration (5, 10, 30 min, 1, 2, 4 hours)."}, "U87 cells": {"system": "U87 cells", "test": "Presto Blue cell kill after light and/or X-ray PDT, U87 cells", "type": "cell-based, human", "settings": "20 μM", "protocol": "The cells were incubated in complete DMEM media containing antibiotics and 10% FBS (resulting in 2.5 μM bovine Tf in the medium) and all the solutions were prepared in this media. The cells were loaded with TLD1433 or TLDOsH2IP (20-80 μM) for 4 hours at 37° C. Subsequently, a wash with complete medium was performed followed by irradiation with red (625 nm, 90 J cm^−2) or near infrared (808 nm, 600 J cm^−2) light, X-ray (5 Gy, 225 keV), X-ray followed by light or light followed by X-ray. Matched dark controls were used in parallel: incubation at ambient conditions (ambient air, room temperature) for a length of time corresponding to the irradiation session. After irradiation, the cells were returned to the incubator. After 21 hours, the viability of cells was determined by Presto Blue assay, and cell kill was calculated as percent of matched control. Pure PDT effect was calculated in the following way: Pure PDT effect (percent cell kill)=Total PDT percent cell kill−Light alone percent cell kill−Dark percent cell kill."}, "[2]": {"settings": "near infrared light (808 nm, 600 J cm^−2)"}}, "data": [{"smiles": "[Os+2].c1ccc2cc3nc4c5cccnc5c5ncccc5c4nc3cc2c1.c1ccc2nc(-c3ccc4ccccc4n3)ccc2c1.c1ccc2nc(-c3ccc4ccccc4n3)ccc2c1", "note": "[OsH2dppn, [Os(biq)2(LL)] benzo[i]dipyrido-[3,2-a:2′,3′-c]phenazine]", "values": [{"measurement": "Distribution on CT images over time", "setting": "[1]", "value": "presumably accumulating in the bladder over time"}]}, {"smiles": "[Os+2].c1ccc2nc(-c3ccc4ccccc4n3)ccc2c1.c1ccc2nc(-c3ccc4ccccc4n3)ccc2c1.c1cnc2c(c1)c1nc[nH]c1c1cccnc12", "note": "[OsH2IP, [Os(biq)2(LL)] imidazo[4,5-f][1,10]phenanthroline]", "values": [{"measurement": "Dark cell kill (%)", "setting": "U87 cells; no irradiation", "value": 5.1, "unit": "%"}, {"measurement": "PDT cell kill (%)", "setting": "U87 cells; Near Infrared & X-ray", "value": 31.5, "unit": "%"}, {"measurement": "Pure PDT effect (% cell kill, in brackets)", "setting": "U87 cells; Near Infrared & X-ray", "value": 17.0, "unit": "% cell kill"}, {"measurement": "Synergy in the pure PDT effect (% cell kill)", "setting": "U87 cells; Near Infrared & X-ray", "value": "−9.3", "unit": "% cell kill"}, {"measurement": "PDT cell kill (%)", "setting": "U87 cells; X-ray & Near Infrared", "value": 50.0, "unit": "%"}, {"measurement": "Pure PDT effect (% cell kill, in brackets)", "setting": "U87 cells; X-ray & Near Infrared", "value": 39.6, "unit": "% cell kill"}, {"measurement": "Synergy in the pure PDT effect (% cell kill)", "setting": "U87 cells; X-ray & Near Infrared", "value": 13.4, "unit": "% cell kill"}, {"measurement": "PDT cell kill (%)", "setting": "U87 cells; X-ray (5 Gy, 225 KeV)", "value": 13.8, "unit": "%"}, {"measurement": "Pure PDT effect (% cell kill, in brackets)", "setting": "U87 cells; X-ray (5 Gy, 225 KeV)", "value": 6.8, "unit": "% cell kill"}, {"measurement": "PDT cell kill (%)", "setting": "U87 cells; [2]", "value": 24.6, "unit": "%"}, {"measurement": "Pure PDT effect (% cell kill, in brackets)", "setting": "U87 cells; [2]", "value": 19.5, "unit": "% cell kill"}]}]}
